{"source": "BigSolDB 2.1"}
{"smiles": "O=P(NCc1ccccc1)(Oc1ccccc1)Oc1ccccc1", "values": [{"measurement": "solubility (mole fraction)", "setting": "in THF, 293.15 K", "result": 0.0978}, {"measurement": "solubility (mole fraction)", "setting": "in THF, 298.15 K", "result": 0.115}, {"measurement": "solubility (mole fraction)", "setting": "in THF, 303.15 K", "result": 0.132}, {"measurement": "solubility (mole fraction)", "setting": "in THF, 308.15 K", "result": 0.157}, {"measurement": "solubility (mole fraction)", "setting": "in THF, 313.15 K", "result": 0.183}, {"measurement": "solubility (mole fraction)", "setting": "in THF, 318.15 K", "result": 0.208}, {"measurement": "solubility (mole fraction)", "setting": "in THF, 323.15 K", "result": 0.24}, {"measurement": "solubility (mole fraction)", "setting": "in acetone, 293.15 K", "result": 0.0447}, {"measurement": "solubility (mole fraction)", "setting": "in acetone, 298.15 K", "result": 0.0587}, {"measurement": "solubility (mole fraction)", "setting": "in acetone, 303.15 K", "result": 0.0741}, {"measurement": "solubility (mole fraction)", "setting": "in acetone, 308.15 K", "result": 0.0986}, {"measurement": "solubility (mole fraction)", "setting": "in acetone, 313.15 K", "result": 0.122}, {"measurement": "solubility (mole fraction)", "setting": "in acetone, 318.15 K", "result": 0.154}, {"measurement": "solubility (mole fraction)", "setting": "in acetone, 323.15 K", "result": 0.198}, {"measurement": "solubility (mole fraction)", "setting": "in acetonitrile, 293.15 K", "result": 0.0148}, {"measurement": "solubility (mole fraction)", "setting": "in acetonitrile, 298.15 K", "result": 0.0196}, {"measurement": "solubility (mole fraction)", "setting": "in acetonitrile, 303.15 K", "result": 0.0264}, {"measurement": "solubility (mole fraction)", "setting": "in acetonitrile, 308.15 K", "result": 0.0344}, {"measurement": "solubility (mole fraction)", "setting": "in acetonitrile, 313.15 K", "result": 0.0431}, {"measurement": "solubility (mole fraction)", "setting": "in acetonitrile, 318.15 K", "result": 0.0591}, {"measurement": "solubility (mole fraction)", "setting": "in acetonitrile, 323.15 K", "result": 0.0742}, {"measurement": "solubility (mole fraction)", "setting": "in acetonitrile, 328.15 K", "result": 0.0948}, {"measurement": "solubility (mole fraction)", "setting": "in acetonitrile, 333.15 K", "result": 0.122}, {"measurement": "solubility (mole fraction)", "setting": "in acetonitrile, 338.15 K", "result": 0.155}, {"measurement": "solubility (mole fraction)", "setting": "in chloroform, 288.15 K", "result": 0.095}, {"measurement": "solubility (mole fraction)", "setting": "in chloroform, 293.15 K", "result": 0.109}, {"measurement": "solubility (mole fraction)", "setting": "in chloroform, 298.15 K", "result": 0.126}, {"measurement": "solubility (mole fraction)", "setting": "in chloroform, 303.15 K", "result": 0.143}, {"measurement": "solubility (mole fraction)", "setting": "in chloroform, 308.15 K", "result": 0.164}, {"measurement": "solubility (mole fraction)", "setting": "in chloroform, 313.15 K", "result": 0.191}, {"measurement": "solubility (mole fraction)", "setting": "in chloroform, 318.15 K", "result": 0.218}, {"measurement": "solubility (mole fraction)", "setting": "in chloroform, 323.15 K", "result": 0.248}, {"measurement": "solubility (mole fraction)", "setting": "in chloroform, 328.15 K", "result": 0.275}, {"measurement": "solubility (mole fraction)", "setting": "in dichloromethane, 288.15 K", "result": 0.055}, {"measurement": "solubility (mole fraction)", "setting": "in dichloromethane, 293.15 K", "result": 0.0724}, {"measurement": "solubility (mole fraction)", "setting": "in dichloromethane, 298.15 K", "result": 0.0965}, {"measurement": "solubility (mole fraction)", "setting": "in dichloromethane, 303.15 K", "result": 0.126}, {"measurement": "solubility (mole fraction)", "setting": "in dichloromethane, 308.15 K", "result": 0.157}, {"measurement": "solubility (mole fraction)", "setting": "in ethyl acetate, 293.15 K", "result": 0.0199}, {"measurement": "solubility (mole fraction)", "setting": "in ethyl acetate, 298.15 K", "result": 0.0279}, {"measurement": "solubility (mole fraction)", "setting": "in ethyl acetate, 303.15 K", "result": 0.0368}, {"measurement": "solubility (mole fraction)", "setting": "in ethyl acetate, 308.15 K", "result": 0.0484}, {"measurement": "solubility (mole fraction)", "setting": "in ethyl acetate, 313.15 K", "result": 0.0627}, {"measurement": "solubility (mole fraction)", "setting": "in ethyl acetate, 318.15 K", "result": 0.0824}, {"measurement": "solubility (mole fraction)", "setting": "in ethyl acetate, 323.15 K", "result": 0.104}, {"measurement": "solubility (mole fraction)", "setting": "in ethyl acetate, 328.15 K", "result": 0.137}, {"measurement": "solubility (mole fraction)", "setting": "in ethyl acetate, 333.15 K", "result": 0.182}, {"measurement": "solubility (mole fraction)", "setting": "in methanol, 293.15 K", "result": 0.0111}, {"measurement": "solubility (mole fraction)", "setting": "in methanol, 298.15 K", "result": 0.0158}, {"measurement": "solubility (mole fraction)", "setting": "in methanol, 303.15 K", "result": 0.0231}, {"measurement": "solubility (mole fraction)", "setting": "in methanol, 308.15 K", "result": 0.0322}, {"measurement": "solubility (mole fraction)", "setting": "in methanol, 313.15 K", "result": 0.0449}, {"measurement": "solubility (mole fraction)", "setting": "in methanol, 318.15 K", "result": 0.0629}, {"measurement": "solubility (mole fraction)", "setting": "in methanol, 323.15 K", "result": 0.0875}, {"measurement": "solubility (mole fraction)", "setting": "in methanol, 328.15 K", "result": 0.125}, {"measurement": "solubility (mole fraction)", "setting": "in methanol, 333.15 K", "result": 0.166}, {"measurement": "solubility (mole fraction)", "setting": "in methyl acetate, 288.15 K", "result": 0.0168}, {"measurement": "solubility (mole fraction)", "setting": "in methyl acetate, 293.15 K", "result": 0.0234}, {"measurement": "solubility (mole fraction)", "setting": "in methyl acetate, 298.15 K", "result": 0.0309}, {"measurement": "solubility (mole fraction)", "setting": "in methyl acetate, 303.15 K", "result": 0.0407}, {"measurement": "solubility (mole fraction)", "setting": "in methyl acetate, 308.15 K", "result": 0.055}, {"measurement": "solubility (mole fraction)", "setting": "in methyl acetate, 313.15 K", "result": 0.0699}, {"measurement": "solubility (mole fraction)", "setting": "in methyl acetate, 318.15 K", "result": 0.094}, {"measurement": "solubility (mole fraction)", "setting": "in methyl acetate, 323.15 K", "result": 0.122}, {"measurement": "solubility (mole fraction)", "setting": "in toluene, 293.15 K", "result": 0.0109}, {"measurement": "solubility (mole fraction)", "setting": "in toluene, 298.15 K", "result": 0.016}, {"measurement": "solubility (mole fraction)", "setting": "in toluene, 303.15 K", "result": 0.0228}, {"measurement": "solubility (mole fraction)", "setting": "in toluene, 308.15 K", "result": 0.0312}, {"measurement": "solubility (mole fraction)", "setting": "in toluene, 313.15 K", "result": 0.0428}, {"measurement": "solubility (mole fraction)", "setting": "in toluene, 318.15 K", "result": 0.0574}, {"measurement": "solubility (mole fraction)", "setting": "in toluene, 323.15 K", "result": 0.0814}, {"measurement": "solubility (mole fraction)", "setting": "in toluene, 328.15 K", "result": 0.108}, {"measurement": "solubility (mole fraction)", "setting": "in toluene, 333.15 K", "result": 0.146}, {"measurement": "solubility (mole fraction)", "setting": "in toluene, 338.15 K", "result": 0.187}, {"measurement": "solubility (mole fraction)", "setting": "in toluene, 343.15 K", "result": 0.243}]}
